This experiment deals with HBsAg. Description: HBsAg assay (secreted HBsAg by CLIA in HepG2.2.15 cells). It counts as cell-based, hepatitis B virus (HBV). The settings on record: Hepatitis B virus, HepG2.2.15, 96 h. As for the experimental part:
HepG2.2.15 cells (Sells et al, Proc Natl Acad Sci USA. 1987 February; 84(4):1005-9), a constitutively HBV-expressing cell line, were cultured in DMEM medium supplemented with 10% FBS and 400 μg/mL G418, and maintained in 5% CO2 at 37° C.
HepG2.2.15 cells were seeded into 96-well plates at 3×10^4 cells/well. The next day, the cells were treated with a five-fold serial dilution series of the compound in DMSO. The final DMSO concentration in all wells was 0.5% and 0.5% DMSO was used as no drug control. After four days of incubation with compounds, the supernatants were harvested and measured for HBsAg concentration
The HBsAg chemiluminescence immunoassay (CLIA) kit was used to measure the levels of secreted HBsAg. Specifically, 50 μL of culture supernatant was transferred to the CLIA assay plate and 50 μL of enzyme conjugate reagent was added into each well. The plates were sealed and incubated for 1 hour at room temperature. The supernatant-enzyme-mixture was discarded and wells were washed for 6 times. The residual liquid was removed by plating on tissue paper. 25 μL of substrate A and B were added into each well. Luminance was measured using a spectrometer (Tecan Infinite® F200) after 10 minutes incubation. IC50 value was extrapolated based the dose-response curves generated from the data.
The term IC50 denotes the concentration at which inhibition is half-maximal. Low readings indicate higher potency, high ones lower potency. In turn, `COc1cc2c(cc1-c1cnn(CC(C)O)c1)CC(C(C)(C)C)n1cc(C(=O)O)c(=O)cc1-2` (stereo not shown) [Example 12, 6-(tert-butyl)-9-(1-(2-hydroxypropyl)-1H-pyrazol-4-yl)-10-methoxy-2-oxo-6,7-dihydro-2H-pyrido[2,1-a]isoquinoline-3-carboxylic acid] displayed an IC50 of 2 nM.
The same measure for `COc1cc2c(cc1-c1nc[nH]n1)CC(C(C)(C)C)n1cc(C(=O)O)c(=O)cc1-2` (stereo not shown) [Example 29, 6-(tert-butyl)-10-methoxy-2-oxo-9-(1H-1,2,4-triazol-3-yl)-6,7-dihydro-2H-pyrido[2,1-a]isoquinoline-3-carboxylic acid]: 12 nM.
The same measure for `COc1cc2c(cc1-c1cnc(Cl)nc1)CC(C(C)(C)C)n1cc(C(=O)O)c(=O)cc1-2` (stereo not shown) [Example 68, 6-(tert-butyl)-9-(2-chloropyrimidin-5-yl)-10-methoxy-2-oxo-6,7-dihydro-2H-pyrido[2,1-a]isoquinoline-3-carboxylic acid]: 0.6 nM; for `COc1cc2c(cc1-c1cnc(N3CCC3)cc1C)CC(C(C)(C)C)n1cc(C(=O)O)c(=O)cc1-2` (stereo not shown) [Example 53, 9-(6-(azetidin-1-yl)-4-methylpyridin-3-yl)-6-(tert-butyl)-10-methoxy-2-oxo-6,7-dihydro-2H-pyrido[2,1-a]isoquinoline-3-carboxylic acid]: 1400 nM; for `COc1cccc(-c2cc3c(cc2OC)-c2cc(=O)c(C(=O)O)cn2C(C(C)(C)C)C3)c1` (stereo not shown) [Example 36, 6-(tert-butyl)-10-methoxy-9-(3-methoxyphenyl)-2-oxo-6,7-dihydro-2H-pyrido[2,1-a]isoquinoline-3-carboxylic acid]: 10 nM.
With `COc1cc2c(cc1-c1ccc(NC3CCC3)nc1)CC(C(C)(C)C)n1cc(C(=O)O)c(=O)cc1-2` (stereo not shown) [Example 56, 6-(tert-butyl)-9-(6-(cyclobutylamino)pyridin-3-yl)-10-methoxy-2-oxo-6,7-dihydro-2H-pyrido[2,1-a]isoquinoline-3-carboxylic acid] the figure was 1 nM.
As to `CCCn1cc(-c2cc3c(cc2OC)-c2cc(=O)c(C(=O)O)cn2C(C(C)C)C3)cn1` (stereo not shown) [Example 6, 6-isopropyl-10-methoxy-2-oxo-9-(1-propyl-1H-pyrazol-4-yl)-6,7-dihydro-2H-pyrido[2,1-a]isoquinoline-3-carboxylic acid], the IC50 is 6 nM.
The same measure for `COc1cc2c(cc1-c1ccc(N3CCN(C(C)=O)CC3)nc1)CC(C(C)(C)C)n1cc(C(=O)O)c(=O)cc1-2` (stereo not shown) [Example 46, 9-(6-(4-acetylpiperazin-1-yl)pyridin-3-yl)-6-(tert-butyl)-10-methoxy-2-oxo-6,7-dihydro-2H-pyrido[2,1-a]isoquinoline-3-carboxylic acid]: 3 nM; for `COc1cc2c(cc1-c1cnn(CCCO)c1)CC(C(C)(C)C)n1cc(C(=O)O)c(=O)cc1-2` (stereo not shown) [Example 9, 6-(tert-butyl)-9-(1-(3-hydroxypropyl)-1H-pyrazol-4-yl)-10-methoxy-2-oxo-6,7-dihydro-2H-pyrido[2,1-a]isoquinoline-3-carboxylic acid]: 290 nM.
The compound `COc1cc2c(cc1-c1cnc(N3CCOCC3)nc1)CC(C(C)(C)C)n1cc(C(=O)O)c(=O)cc1-2` (stereo not shown) [Example 62, 6-(tert-butyl)-10-methoxy-9-(2-morpholinylpyrimidin-5-yl)-2-oxo-6,7-dihydro-2H-pyrido[2,1-a]isoquinoline-3-carboxylic acid] returned an IC50 of 5 nM.
In turn, `COc1cc2c(cc1-c1ccc(N)nc1)CC(C(C)(C)C)n1cc(C(=O)O)c(=O)cc1-2` (stereo not shown) [Example 54, 9-(6-aminopyridin-3-yl)-6-(tert-butyl)-10-methoxy-2-oxo-6,7-dihydro-2H-pyrido[2,1-a]isoquinoline-3-carboxylic acid] registered an IC50 of 1 nM. This IC50 lies about 5-fold lower than the previous one.
In the case of `COc1ncc(-c2cc3c(cc2OC)-c2cc(=O)c(C(=O)O)cn2C(C(C)(C)C)C3)cn1` (stereo not shown) [Example 66, 6-(tert-butyl)-10-methoxy-9-(2-methoxypyrimidin-5-yl)-2-oxo-6,7-dihydro-2H-pyrido[2,1-a]isoquinoline-3-carboxylic acid], half-maximal inhibition (IC50) required 0.8 nM.
The same measure for `COc1cc2c(cc1-c1ccc(F)nc1)CC(C(C)(C)C)n1cc(C(=O)O)c(=O)cc1-2` (stereo not shown) [Example 49, 6-(tert-butyl)-9-(6-fluoropyridin-3-yl)-10-methoxy-2-oxo-6,7-dihydro-2H-pyrido[2,1-a]isoquinoline-3-carboxylic acid]: 14 nM.
With `COc1cc2c(cc1-c1cnn(CC(F)(F)F)c1)CC(C(C)(C)C)n1cc(C(=O)O)c(=O)cc1-2` (stereo not shown) [Example 10, 6-(tert-butyl)-10-methoxy-2-oxo-9-(1-(2,2,2-trifluoroethyl)-1H-pyrazol-4-yl)-6,7-dihydro-2H-pyrido[2,1-a]isoquinoline-3-carboxylic acid] the figure was 6 nM.
Compound `COc1cc2c(cc1-c1ccc(C)nc1)CC(C(C)C)n1cc(C(=O)O)c(=O)cc1-2` (stereo not shown) [Example 7, 6-isopropyl-10-methoxy-9-(6-methylpyridin-3-yl)-2-oxo-6,7-dihydro-2H-pyrido[2,1-a]isoquinoline-3-carboxylic acid] yielded an IC50 of 36 nM. Compared with the last compound, the IC50 is about 6-fold higher.
In turn, `COc1cc2c(cc1-c1ncn(CC(=O)O)n1)CC(C(C)(C)C)n1cc(C(=O)O)c(=O)cc1-2` (stereo not shown) [Example 30, 6-(tert-butyl)-9-(1-(carboxymethyl)-1H-1,2,4-triazol-3-yl)-10-methoxy-2-oxo-6,7-dihydro-2H-pyrido[2,1-a]isoquinoline-3-carboxylic acid] showed an IC50 of 13 nM. Against the preceding compound, the IC50 is about 2.8-fold lower.
For `COc1cc2c(cc1-c1ccc(C(F)(F)F)nc1)CC(C(C)(C)C)n1cc(C(=O)O)c(=O)cc1-2` (stereo not shown) [Example 41, 6-(tert-butyl)-10-methoxy-2-oxo-9-(6-trifluoromethylpyridin-3-yl)-6,7-dihydro-2H-pyrido[2,1-a]isoquinoline-3-carboxylic acid], the IC50 was 2 nM.
The compound `COc1cc2c(cc1-c1ccc(N3CCNCC3)nc1)CC(C(C)(C)C)n1cc(C(=O)O)c(=O)cc1-2` (stereo not shown) [Example 45, 6-(tert-butyl)-10-methoxy-2-oxo-9-(6-(piperazin-1-yl)pyridin-3-yl)-6,7-dihydro-2H-pyrido[2,1-a]isoquinoline-3-carboxylic acid] gave an IC50 of 14 nM.
The compound `COc1cc2c(cc1-c1cn[nH]c1)CC(C(C)C)n1cc(C(=O)O)c(=O)cc1-2` (stereo not shown) [Example 1, 6-isopropyl-10-methoxy-2-oxo-9-(1H-pyrazol-4-yl)-6,7-dihydro-2H-pyrido[2,1-a]isoquinoline-3-carboxylic acid] had an IC50 of 14 nM.
With `COc1cc2c(cc1-c1cccnc1C)CC(C(C)(C)C)n1cc(C(=O)O)c(=O)cc1-2` (stereo not shown) [Example 39, 6-(tert-butyl)-10-methoxy-9-(2-methylpyridin-3-yl)-2-oxo-6,7-dihydro-2H-pyrido[2,1-a]isoquinoline-3-carboxylic acid] the figure was 25 nM; with `COc1cc2c(cc1-c1cnc(NC3CCC3)nc1)CC(C(C)(C)C)n1cc(C(=O)O)c(=O)cc1-2` (stereo not shown) [Example 76, 6-(tert-butyl)-9-(2-(cyclobutylamino)pyrimidin-5-yl)-10-methoxy-2-oxo-6,7-dihydro-2H-pyrido[2,1-a]isoquinoline-3-carboxylic acid], 0.4 nM; with `COCCOc1ccc(-c2cc3c(cc2OC)-c2cc(=O)c(C(=O)O)cn2C(C(C)(C)C)C3)cn1` (stereo not shown) [Example 42, 6-(tert-butyl)-10-methoxy-9-(6-(2-methoxyethoxy)pyridin-3-yl)-2-oxo-6,7-dihydro-2H-pyrido[2,1-a]isoquinoline-3-carboxylic acid], 2 nM.

The values above are taken from patent US10717730B1, “Dihydroisoquinoline compound” (SUZHOU ARK BIOPHARMACEUTICAL CO., LTD., priority 2017, dated 2020).
